Literature values, collected in patent US7361789B1, “Dihydronaphthalene compounds, compositions, uses thereof, and methods for synthesis” (Amgen Inc., priority 2004, dated 2008).
Read-outs that look alike come from different tables or passages of the source.

- solubility in water (neutral pH): less than 1 μg/mL
- solubility (pH is about 1): about 0.1 mg/mL
- solubility (pH ranges from about 3 to about 5): about 1.6 mg/mL
SMILES: C[C@@H](NCCCc1cccc(C(F)(F)F)c1)c1cccc2ccccc12 [cinacalcet]
